From ChEMBL document CHEMBL1201862, “PubChem BioAssay data set” (2004) come the findings set out here.

Some test systems named below: LOX IMVI; NCI-H460; HCT-15; MOLT-4; OVCAR-3; SF-295; NCI-H522; SK-MEL-2; UO-31; SNB-19; CCRF-CEM; NCI-H23; SR; UACC-62; SK-MEL-28; CAKI-1; SK-OV-3; HT-29; TK-10; SF-539.
Common to all, as to test: DTP human tumour cell line panel, 48 h

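Five compound concentrations were applied to cells in 96-well plates for 48 hours; endpoints were derived by simple linear interpolation of the resulting dose-response curve. Here, GI50 denotes the concentration required for 50% inhibition of growth.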 Calls of active or inactive are those of the source. Cut-off read from the data, not from the text of the source: active = GI50 up to about 1.1 µM and inactive = higher. Where a SMILES comes first, the peptide text is derived from it. [ ]: non-standard residue; d: D form. The star is where a group is joined. Phe(4-NO2) = N[CH](Cc1ccc([N+](=O)[O-])cc1)C(=O)O; Boc = CC(C)(C)OC(=O)* A value given as a limit tells only on which side of the number the result lay.

As for `CC[C@H]1OC([C@H](O)C/C=C\C#C[Si](C)(C)C)C/C=C\C[C@H]1O[Si](C)(C)C(C)(C)C` (stereo partly specified), the GI50 in the assay with LOX IMVI was 19.4 µM (inactive); with NCI-H460, > 100 µM (inactive); in the assay with HCT-15, more than 100 µM; in the assay with MOLT-4, > 100 µM (inactive); in the assay on OVCAR-3, > 100 µM (inactive); in the assay on SF-295, > 100 µM (inactive). Moreover, the GI50 is 40.9 µM (inactive) with NCI-H522; > 100 µM (inactive) with SK-MEL-2; 54.5 µM (inactive) with UO-31; > 100 µM (inactive) in the assay on SNB-19; 43.3 µM (inactive) with CCRF-CEM; > 100 µM (inactive) in the assay on NCI-H23. Besides, the GI50 with SR, in the assay with UACC-62, in the assay with SK-MEL-28, with CAKI-1, in the assay with SK-OV-3 and with HT-29 was > 100 µM (inactive) each time.
Turning to `CCCCCCCCOCC(O)COC` (stereo unspecified), the GI50 in the assay on LOX IMVI is > 100 µM (inactive); in the assay on NCI-H460, > 100 µM (inactive); with TK-10 it was > 100 µM (inactive); with HCT-15, more than 100 µM; in the assay on MOLT-4 it was > 100 µM (inactive); in the assay on OVCAR-3, 94.6 µM (inactive). For the same molecule, the GI50 in the assay with SF-295, with UO-31, in the assay on SNB-19, in the assay with CCRF-CEM, with NCI-H23 and in the assay with SR was > 100 µM (inactive) throughout. In addition, the GI50 in the assay on UACC-62, in the assay with SK-MEL-28, in the assay on CAKI-1, in the assay with SK-OV-3 and with HT-29 was > 100 µM (inactive) each time.
As to `N#C[C@@H](c1ccccn1)c1ncccc1[N+](=O)[O-]`, the GI50 in the assay with LOX IMVI was > 100 µM (inactive); in the assay with NCI-H460, > 100 µM (inactive); in the assay with HCT-15, more than 100 µM; in the assay with MOLT-4, > 100 µM (inactive); in the assay on OVCAR-3 it was > 100 µM (inactive); in the assay with SF-295 it was > 100 µM (inactive). In addition, the GI50 in the assay with NCI-H522, in the assay on SK-MEL-2, in the assay on UO-31, with SNB-19, in the assay with CCRF-CEM and with NCI-H23 was > 100 µM (inactive) throughout. The GI50 in the assay with SR, with UACC-62, in the assay with SK-MEL-28, with CAKI-1, with SK-OV-3 and with HT-29 was > 100 µM (inactive) in each case.
For `CCOC(=O)c1sc2nc(SC)nc(N3CCCCC3)c2c1N`, the GI50 in the assay on LOX IMVI was > 100 µM (inactive); in the assay with NCI-H460, > 100 µM (inactive); in the assay on TK-10 it was > 100 µM (inactive); with HCT-15, more than 100 µM; in the assay on MOLT-4, > 100 µM (inactive); in the assay on OVCAR-3, > 100 µM (inactive). Further, the GI50 in the assay with SF-295, in the assay with NCI-H522, in the assay with SK-MEL-2, in the assay with UO-31, with SNB-19 and in the assay with NCI-H23 was > 100 µM (inactive) throughout. In addition, the GI50 with SR, in the assay with UACC-62, with SK-MEL-28, in the assay on CAKI-1, with SK-OV-3 and with HT-29 was > 100 µM (inactive) throughout.
As for `CC1(c2cccc(N)c2)C2C(=O)NC(=O)C1C(=O)NC2=O` (stereo unspecified), the GI50 is 28.1 µM (inactive) in the assay with LOX IMVI; 33 µM (inactive) in the assay with NCI-H460; 50.9 µM (inactive) in the assay on TK-10; 28.6 µM (inactive) in the assay on SF-539; 36.2 µM in the assay on HCT-15; 18 µM (inactive) in the assay on MOLT-4. For the same molecule, the GI50 with OVCAR-3 was 21.7 µM (inactive); in the assay with SF-295, 22.4 µM (inactive); with NCI-H522 it was 19.7 µM (inactive); in the assay on SK-MEL-2, 24.3 µM (inactive); in the assay on UO-31, 22.3 µM (inactive); with SNB-19, 29.2 µM (inactive). In addition, the GI50 in the assay on CCRF-CEM was 22.4 µM (inactive); in the assay on NCI-H23, 22.1 µM (inactive); with UACC-62, 33.3 µM (inactive); in the assay on SK-MEL-28, 38.6 µM (inactive); in the assay with CAKI-1, 61.9 µM (inactive); in the assay on SK-OV-3, 23.9 µM (inactive). Moreover, the GI50 in the assay on HT-29 was 29.4 µM (inactive).
As to `C#CCC(O)c1ccc(OC)c(OCc2ccccc2)c1` (stereo unspecified), the GI50 with LOX IMVI is > 100 µM (inactive); in the assay on NCI-H460, > 100 µM (inactive); with TK-10, > 100 µM (inactive); in the assay with SF-539, > 100 µM (inactive); with HCT-15, more than 100 µM; with MOLT-4, 23.6 µM (inactive). Further, the GI50 with OVCAR-3 was > 100 µM (inactive); with SF-295, 98.4 µM (inactive); with NCI-H522 it was > 100 µM (inactive); in the assay with SK-MEL-2 it was > 100 µM (inactive); with UO-31, > 100 µM (inactive); in the assay with SNB-19, > 100 µM (inactive). Further, the GI50 with CCRF-CEM was 26.7 µM (inactive); with NCI-H23, > 100 µM (inactive); in the assay with UACC-62 it was > 100 µM (inactive); in the assay with SK-MEL-28, > 100 µM (inactive); in the assay with CAKI-1, > 100 µM (inactive); in the assay on SK-OV-3, > 100 µM (inactive). The GI50 in the assay on HT-29 is > 100 µM (inactive).
Regarding `COc1cc(CC(C)=O)cc(OC)c1`, the GI50 is > 100 µM (inactive) with NCI-H460; > 100 µM (inactive) with TK-10; 31.6 µM with HCT-15; 24.7 µM (inactive) in the assay with MOLT-4; 56.5 µM (inactive) with OVCAR-3; 91 µM (inactive) with SF-295. For the same molecule, the GI50 is 32.6 µM (inactive) in the assay with UO-31; > 100 µM (inactive) in the assay on SNB-19; 29.8 µM (inactive) with CCRF-CEM; > 100 µM (inactive) in the assay on NCI-H23; 26.6 µM (inactive) in the assay with SR; 60.3 µM (inactive) in the assay on UACC-62. For the same molecule, the results for the GI50 in the assay with SK-MEL-28, in the assay with SK-OV-3 and in the assay on HT-29 were > 100 µM (inactive), > 100 µM (inactive) and 42.8 µM (inactive), respectively.
For `COC(=O)C1CC2CCC1(O[Si](C(C)C)(C(C)C)C(C)C)C(O)C2` (stereo unspecified), the GI50 is 14.4 µM (inactive) with LOX IMVI; 33.7 µM (inactive) in the assay with NCI-H460; 16.9 µM in the assay on HCT-15; 10.9 µM (inactive) in the assay with MOLT-4; 17.3 µM (inactive) in the assay on OVCAR-3; 20 µM (inactive) in the assay with SF-295. Moreover, the GI50 with NCI-H522 is 21.8 µM (inactive); in the assay on SK-MEL-2 it was 15.1 µM (inactive); with UO-31 it was 16.6 µM (inactive); with SNB-19, 19.1 µM (inactive); in the assay with CCRF-CEM, 24.3 µM (inactive); in the assay on NCI-H23 it was 20.9 µM (inactive). Besides, the GI50 in the assay with SR is 13.6 µM (inactive); with UACC-62, 37 µM (inactive); with SK-MEL-28, 19.4 µM (inactive); with CAKI-1, 38.5 µM (inactive); with SK-OV-3 it was 43.4 µM (inactive); in the assay on HT-29, 16.6 µM (inactive).
`CCN1CCCC(C#N)(c2ccccc2)CC1` (stereo unspecified): the GI50 in the assay with NCI-H460 was > 100 µM (inactive); in the assay on TK-10, > 100 µM (inactive); with HCT-15, more than 100 µM; with MOLT-4 it was > 100 µM (inactive); with SF-295, > 100 µM (inactive); in the assay on UO-31, > 100 µM (inactive). The GI50 with SNB-19 is > 100 µM (inactive); with CCRF-CEM it was > 10 µM (inactive); in the assay with NCI-H23 it was > 100 µM (inactive); in the assay with SR it was > 100 µM (inactive); in the assay on SK-MEL-28, > 100 µM (inactive); in the assay with CAKI-1, > 100 µM (inactive). In addition, the GI50 in the assay with SK-OV-3 and in the assay on HT-29 was > 100 µM (inactive) throughout.
For the molecule `CCOC(=O)c1cn(Cc2ccccc2)c(=O)n1Cc1ccccc1`, the GI50 in the assay with LOX IMVI was > 100 µM (inactive); in the assay on NCI-H460 it was > 100 µM (inactive); in the assay with TK-10 it was > 100 µM (inactive); in the assay with SF-539 it was > 100 µM (inactive); in the assay with HCT-15, 80.2 µM; in the assay on MOLT-4 it was 35 µM (inactive). The GI50 was > 100 µM (inactive) in the assay with OVCAR-3; 67.1 µM (inactive) with SF-295; > 100 µM (inactive) with NCI-H522; > 100 µM (inactive) in the assay on SK-MEL-2; 48.9 µM (inactive) with UO-31; > 100 µM (inactive) in the assay with SNB-19. The GI50 in the assay on CCRF-CEM was 62.8 µM (inactive); in the assay with NCI-H23, > 100 µM (inactive); in the assay with UACC-62, > 100 µM (inactive); in the assay with SK-MEL-28, > 100 µM (inactive); in the assay on CAKI-1, 77.1 µM (inactive); in the assay on SK-OV-3 it was > 100 µM (inactive). Further, the GI50 with HT-29 is > 100 µM (inactive).
`CCOC(=O)CCC(NC(=O)C(Cc1ccc([N+](=O)[O-])cc1)NC(=O)OC(C)(C)C)C(=O)NC(CCC(=O)OCC)C(=O)OCC` (stereo unspecified) (Boc-[Phe(4-NO2)]-Glu(OEt)-Glu(OEt)-OEt; configuration not given here): the GI50 is 23.4 µM (inactive) in the assay with NCI-H460; 15.5 µM (inactive) with TK-10; 36 µM in the assay with HCT-15; 2.73 µM (inactive) in the assay with MOLT-4; 13.2 µM (inactive) in the assay with SK-MEL-2; > 100 µM (inactive) in the assay with UO-31. For the same molecule, the GI50 in the assay on SNB-19 was 95.9 µM (inactive); in the assay with NCI-H23, 17.9 µM (inactive); in the assay with SR it was 2.87 µM (inactive); in the assay on UACC-62 it was 16.8 µM (inactive); with SK-MEL-28, 15.6 µM (inactive); with HT-29 it was 16.3 µM (inactive).
Turning to `O=C1CCC(N2C(=O)c3ccccc3C2=O)C(=O)N1` (stereo unspecified) [THALIDOMIDE], the GI50 in the assay on NCI-H460 is > 100 µM (inactive); in the assay on HCT-15, more than 100 µM; with MOLT-4, > 100 µM (inactive); in the assay with SF-295 it was > 100 µM (inactive); with NCI-H522 it was > 100 µM (inactive); in the assay on SK-MEL-2 it was > 100 µM (inactive). The GI50 with UO-31, with SNB-19, in the assay with CCRF-CEM, in the assay on NCI-H23, with SR and in the assay on UACC-62 was > 100 µM (inactive) in each case. Also, the GI50 in the assay on CAKI-1 and in the assay on SK-OV-3 was > 100 µM (inactive) in each case.

In general, GI50 refers to the concentration at which growth is held to half of that of the control.
